{"source": "patent US9849127B2", "about": "“Means and methods for treating cancer” (Medizinische Hochschule Hannover, priority 2013, dated 2017)", "key": {"IDH1mut cancer cells": {"system": "IDH1mut cancer cells", "test": "Alamar blue cell viability assay, IDH1mut cells", "format": "cell-based", "method": "(§1) FIG. 1: IC50 values for IDH1wt and IDH1mut treated with compound HMS-101 for 72 hours."}, "[1]": {"system": "R-2-hydroxyglutarate (R-2HG)", "test": "Ratio R-2HG/S-2HG in serum of treated mice", "format": "in vivo", "details": "treated mice versus PBS, 9 weeks after treatment, pooled serum", "source_text": "FIG. 6: Ratio of R-2-hydroxyglutarate (R-2HG) to S-2-hydroxyglutarate (S-2HG) in serum from mice treated with HMS-101 or solvent control (PBS) at 9 weeks after treatment. Serum from 3 mice were pooled per indicated measurement (9 mice for PBS, 12 mice for HMS-101).\n2-hydroxyglutarate (R-2HG), in particular elevated values thereof, typically measured in terms of the ratio between R- and S-form (R-2HG/S-2HG) is a marker for leukemia in accordance with the present invention. […] This establishes both the usefulness of the mentioned ratio as a marker for leukemia and the beneficial effects of HMS-101."}, "[2]": {"system": "primary human AML cells harboring the IDH1 mutation", "test": "Colony forming assay of primary human AML cells", "format": "cell-based", "details": "IDH1-mutated primary human AML cells compared to AML cells with wildtype IDH1 and CD34+ cells from healthy donors", "source_text": "FIG. 3: Colony forming assay of primary human AML cells with and without IDH1 mutation treated with solvent control (DMSO) or compound HMS-101. Human CD34^+ hematopoietic stem and progenitor cells from healthy donors were used as controls."}, "[3]": {"system": "HoxA9 immortalized bone marrow cells expressing IDH1R132C", "test": "Survival of mice transplanted with HoxA9 immortalized IDH1R132C bone marrow cells", "format": "in vivo", "details": "1 mg/mouse 5 days/week starting 5 days after transplantation, versus PBS; follow-up ongoing", "method": "FIG. 5: Survival of mice treated with HMS-101.\nHoxA9 immortalized bone marrow cells from C57BL/6J mice were transduced with retroviral vectors expressing IDH1R132C and GFP. One million GFP-expressing sorted cells were injected intravenously in lethally-irradiated syngeneic recipient mice, accompanied by a life-sparing dose of 1×10^5 freshly isolated bone marrow cells from syngeneic mice. One cohort of mice was treated with HMS-101 at a dose of 1 mg/mouse for 5 days/week starting 5 days after transplantation. The control cohort was treated with PBS for 5 days/week starting 5 days after transplantation. The solid line represents the survival of PBS-treated mice, the dotted line represents the survival of HMS-101-treated mice. Follow-up and treatment are ongoing."}, "IDH1wt cells": {"system": "IDH1wt cells", "test": "Alamar blue cell viability assay, IDH1wt cells", "format": "cell-based", "details": "IDH1wt cells in vitro, treated for 72 hours", "method": "as §1"}, "[4]": {"test": "Toxicity testing in animals", "format": "in vivo", "details": "mice, 1 mg intraperitoneally daily for two weeks", "method": "The compound described herein has been given to mice at a dose of 1 mg intraperitoneally daily for two weeks."}, "[5]": {"system": "primary human AML cells harboring the IDH1 mutation", "test": "Rate of apoptosis of primary human AML cells", "format": "cell-based", "details": "IDH1-mutated primary human AML cells compared to AML cells with wildtype IDH1 and CD34+ cells from healthy donors", "source_text": "FIG. 4: Rate of apoptosis of primary human AML cells with and without IDH1 mutation treated with solvent control (DMSO) or compound HMS-101. Human CD34^+ hematopoietic stem and progenitor cells from healthy donors were used as controls."}, "IDH1 mutant enzyme": {"system": "IDH1 mutant enzyme", "test": "Intracellular 2HG levels in IDH1mutant cells (neomorphic activity)", "format": "cell-based", "details": "72 hours, 10 μM, versus control treated cells", "source_text": "FIG. 2: D-2HG levels from IDH1mut cells treated with compound HMS-101 (drug) or solvent control."}}, "data": [{"smiles": "CN1CCN(C)[C@H](CCN2CC[C@H](c3ccc(F)cc3)C2)C1", "note": "[HMS-101]", "values": [{"measurement": "IC50 on IDH1wt cells relative to IDH1mut cells", "setting": "IDH1mut cancer cells; 72 hours", "value": 12, "unit": "times"}, {"measurement": "IC50", "setting": "IDH1mut cancer cells; IDH1mut cancer cells in vitro, treated for 72 hours", "value": 1, "unit": "µM"}, {"measurement": "ratio R-2HG/S-2HG in serum", "setting": "[1]", "value": "decrease of the ratio R-2HG/S-2HG"}, {"measurement": "colony forming potential", "setting": "[2]", "value": "reduced the colony forming potential"}, {"measurement": "survival", "setting": "[3]", "value": "survival benefit"}, {"measurement": "IC50", "setting": "IDH1wt cells", "value": 12, "unit": "µM"}, {"measurement": "tolerability / visible signs of toxicity", "setting": "[4]", "value": "well tolerated by the animals with no visible signs of toxicity"}, {"measurement": "rate of apoptosis", "setting": "[5]", "value": "increased the rate of apoptosis"}, {"measurement": "intracellular 2HG levels (D-2HG)", "setting": "IDH1 mutant enzyme", "value": "dramatically reduced"}]}]}
